Test system: Bacillus cereus, Staphylococcus aureus, Pseudomonas aeruginosa, Escherichia coli, Aspergillus flavus, Chrysosporium keratinophilum
Experiment: Agar plate disc-diffusion antimicrobial test
Format: cell-based
Conditions: disc wetted with 10 μL of 10 mg/mL in DMSO; 37° C., 48 h, 72 h for fungi; DMSO control zone subtracted
Description: The agar plate disc-diffusion method was applied. Sterilized filter papers (6 mm in diameter) were wetted with 10 μL of a solution of 2-(benzo[d]thiazol-2-yl)-N′-(2-(5-phenyl-1,3,4-oxadiazol-2-ylthio)acetoxy)acetimidamide (3) to be tested, containing 10 mg/mL in DMSO, and the discs were allowed to air dry. The discs were then placed onto the surface of agar plates (nutrient agar for bacteria and Sabouraud's dextrose agar for fungi) seeded with the test organism. Each plate contained 15 mL of the agar medium, previously seeded with 0.2 mL of the broth culture of each organism pregrown for 18 hours. The plates were incubated at 37° C. for 48 h, and 72 h for fungi. The inhibition zones were measured in mm. Discs impregnated with DMSO were used as a control, and its inhibition zone was subtracted from the tested compound actual inhibition zone. […] The antibacterial activity was screened against gram positive bacteria namely Bacillus cereus and Staphylococcus aureus and gram-negative bacterial strains namely Pseudomonas aeruginosa and Escherichia coli, while the antifungal activity was screened against Aspergillus flavus and Chrysosporium keratinophilum.

N/C(Cc1nc2ccccc2s1)=N\OC(=O)CSc1nnc(-c2ccccc2)o1 [compound 3, 2-(benzo[d]thiazol-2-yl)-N′-(2-(5-phenyl-1,3,4-oxadiazol-2-ylthio)acetoxy)acetimidamide]
antimicrobial activities (inhibition zones): high antimicrobial activities
